EPA's ToxRefDB 2

Columns and labels:
[1] = tested on: rat; conditions: Multigenerational reproductive toxicity study, sprague dawley, Oral, Feed, dose end: 2 generation
[2] = tested on: mouse; conditions: Carcinogenicity, cd1, Oral, Feed, dose end: 78 week, group: systemic
[3] = tested on: rat; conditions: Subchronic oral toxicity in rodents, sprague dawley, Feed, dose end: 13 week
[4] = tested on: rat; conditions: Prenatal developmental toxicity study, Sprague-Dawley, Oral, Gavage/Intubation, dose end: 15 GD
[5] = tested on: dog; conditions: Chronic toxicity, beagle, Oral, Capsule, dose end: 12 month
[6] = tested on: rabbit; conditions: Prenatal developmental toxicity study, new zealand white, Oral, Gavage/Intubation, dose end: 19 GD
[7] = tested on: dog; conditions: Subchronic oral toxicity in nonrodent, beagle, Feed, dose end: 3 month
[8] = tested on: rat; conditions: Subchronic oral toxicity in rodents, sprague dawley, Gavage/Intubation, dose end: 91 day, group: systemic
[9] = tested on: mouse; conditions: Combined chronic toxicity/carcinogenicity, other, Oral, Feed, dose end: 80 week, group: systemic
[10] = tested on: rat; conditions: Subchronic oral toxicity in rodents, wistar, Feed, dose end: 13 week, group: systemic
[11] = tested on: rat; conditions: Prenatal developmental toxicity study, sprague dawley, Oral, Gavage/Intubation, dose end: 15 GD
[12] = tested on: rabbit; conditions: Prenatal developmental toxicity study, new zealand white, Oral, Gavage/Intubation, dose end: 18 GD
[13] = tested on: mouse; conditions: Carcinogenicity, other, Oral, Feed, dose end: 18 month, group: systemic
[14] = tested on: mouse; conditions: Subchronic oral toxicity in rodents, other, Feed, dose end: 13 week, group: systemic
[15] = group: offspring, systemic / in life observation / body weight / offspring (pup) weight
[16] = group: parental, systemic / in life observation / body weight / body weight
[17] = group: parental, systemic / in life observation / body weight / body weight + systemic / pathology microscopic / heart / cardiomyopathy
[18] = systemic / in life observation / body weight / body weight + systemic / in life observation / food consumption / food consumption
[19] = group: cholinesterase, cholinesterase / cholinesterase / cholinesterase / brain cholinesterase (che) + cholinesterase / cholinesterase / cholinesterase / plasma …
[20] = group: cholinesterase, cholinesterase / cholinesterase / cholinesterase / plasma cholinesterase (che)
[21] = group: systemic, systemic / in life observation / body weight / body weight + systemic / in life observation / body weight / body weight gain + systemic / in…
[22] = group: systemic, systemic / in life observation / body weight / body weight + systemic / in life observation / body weight / body weight gain + systemic / …
[23] = group: developmental, developmental / developmental malformation / bone / unossified + developmental / developmental malformation / trunk / omphalocele + systemic…
[24] = group: maternal, reproductive / reproductive performance / resorptions / resorptions + systemic / in life observation / body weight / body weight + systemic…
[25] = group: systemic, systemic / pathology microscopic / thymus / atrophy
[26] = group: cholinesterase, cholinesterase / cholinesterase / cholinesterase / erythrocyte cholinesterase (che) + cholinesterase / cholinesterase / cholinesterase / …
[27] = group: developmental, systemic / in life observation / body weight / fetal weight
[28] = group: maternal, systemic / in life observation / body weight / body weight + systemic / in life observation / clinical signs / fur (altered appearance) + …
[29] = group: systemic, systemic / in life observation / clinical signs / salivation + systemic / clinical chemistry / urea nitrogen / urea nitrogen + systemic / in…
[30] = systemic / in life observation / mortality / mortality + systemic / pathology microscopic / kidney / hydronephrosis + systemic / clinical …
[31] = systemic / clinical chemistry / immunoglobulins / immunoglobulins + systemic / pathology microscopic / thymus / cyst
[32] = systemic / clinical chemistry / aspartate aminotransferase (ast/sgot) / aspartate aminotransferase (ast/sgot) + systemic / in life …
[33] = group: developmental, developmental / developmental malformation / bone / unossified + systemic / in life observation / body weight / fetal weight
[34] = group: maternal, systemic / in life observation / body weight / body weight gain + systemic / in life observation / clinical signs / poor general condition
[35] = group: maternal, systemic / in life observation / body weight / body weight gain + systemic / in life observation / clinical signs / poor general condition…
[36] = group: developmental, systemic / in life observation / body weight / fetal weight + developmental / developmental malformation / bone / unossified
[37] = group: maternal, systemic / in life observation / body weight / body weight gain + reproductive / reproductive performance / aborted / aborted + systemic / …
[38] = systemic / clinical chemistry / immunoglobulins / immunoglobulins
[39] = systemic / organ weight / adrenal gland / absolute
[40] = systemic / organ weight / adrenal gland / absolute + systemic / clinical chemistry / albumin / albumin + systemic / clinical chemistry / …

`CCCN(CCC)C(=O)SCC` [EPTC] was tested, and the LEL [1, 15] was 40 mg/kg/day, the LOAEL [1, 15] was 40 mg/kg/day and the NEL [1, 15] was 10 mg/kg/day. For the same compound, the NOAEL [1, 15] was 10 mg/kg/day, the NEL [1, 16] was 2.5 mg/kg/day and the NOAEL [1, 16] was 2.5 mg/kg/day. For the same compound, the LEL [1, 17] was 10 mg/kg/day, the LOAEL [1, 17] was 10 mg/kg/day and the LEL ([2]; systemic / in life observation / body weight / body weight) was 90 mg/kg/day. For the same compound, the LOAEL [2, 18] was 270 mg/kg/day, the NEL [2, 18] was 30 mg/kg/day and the NOAEL [2, 18] was 90 mg/kg/day. The LOAEL [3, 19] was greater than 120 mg/kg/day, the NOAEL [3, 19] was no less than 120 mg/kg/day and the LEL [3, 20] was 72 mg/kg/day. For the same compound, the NEL [3, 20] was 15 mg/kg/day, the LOAEL [3, 21] was 15 mg/kg/day and the NOAEL [3, 21] was 3 mg/kg/day. For the same compound, the LEL [3, 22] was 3 mg/kg/day, the NEL [3, 22] was less than 3 mg/kg/day and the LEL [4, 23] was 300 mg/kg/day. For the same compound, the LOAEL [4, 23] was 300 mg/kg/day, the NEL [4, 23] was 100 mg/kg/day and the NOAEL [4, 23] was 100 mg/kg/day. For the same compound, the LEL ([4]; group: maternal, reproductive / reproductive performance / postimplantation loss / postimplantation loss) was 100 mg/kg/day, the LOAEL [4, 24] was 300 mg/kg/day and the NEL [4, 24] was 30 mg/kg/day. For the same compound, the NOAEL [4, 24] was 100 mg/kg/day, the LEL [5, 20] was 8 mg/kg/day and the LOAEL [5, 20] was 8 mg/kg/day. For the same compound, the NEL [5, 20] was 1 mg/kg/day, the NOAEL [5, 20] was 1 mg/kg/day and the NOAEL ([5]; group: systemic, systemic / pathology microscopic / lung / fibrosis + systemic / pathology microscopic / lung / inflammation + systemic / clinical chemistry…) was 1 mg/kg/day. The LOAEL ([5]; group: systemic, systemic / pathology microscopic / lung / fibrosis + systemic / pathology microscopic / lung / inflammation + systemic / in life observation…) was 8 mg/kg/day, the LEL [5, 25] was 1 mg/kg/day and the NEL [5, 25] was less than 1 mg/kg/day. For the same compound, the LEL [6, 26] was 5 mg/kg/day, the LOAEL [6, 26] was 5 mg/kg/day and the NEL [6, 26] was less than 5 mg/kg/day. For the same compound, the NOAEL [6, 26] was less than 5 mg/kg/day, the LEL [6, 27] was 300 mg/kg/day and the LOAEL [6, 27] was 300 mg/kg/day. It also gave an NEL [6, 27] of 40 mg/kg/day, an NOAEL [6, 27] of 40 mg/kg/day and an LEL [6, 28] of 300 mg/kg/day. For the same compound, the LOAEL [6, 28] was 300 mg/kg/day, the NEL [6, 28] was 40 mg/kg/day and the NOAEL [6, 28] was 40 mg/kg/day. The LEL [7, 20] was 45 mg/kg/day, the LOAEL [7, 20] was 45 mg/kg/day and the NEL [7, 20] was 15 mg/kg/day. For the same compound, the NOAEL [7, 20] was 15 mg/kg/day, the LOAEL ([7]; group: systemic, systemic / in life observation / clinical signs / salivation) was 45 mg/kg/day and the LEL [7, 29] was 45 mg/kg/day. It also gave an NEL [7, 29] of 15 mg/kg/day and an NOAEL [7, 29] of 15 mg/kg/day.

Work on `[PH]=[Zn].[PH]=[Zn].[Zn]` [Zinc phosphide] yielded an NEL ([8]; systemic / in life observation / clinical signs / body cold to touch + systemic / in life observation / clinical signs / salivation + …) of 0.1 mg/kg/day, an LOAEL ([8]; systemic / in life observation / mortality / mortality + systemic / pathology microscopic / kidney / hydronephrosis) of 1 mg/kg/day and an LEL [8, 30] of 1 mg/kg/day. It also gave an NOAEL [8, 30] of 0.1 mg/kg/day.

In the case of `[OH-].c1cc[c]([Sn+]([c]2ccccc2)[c]2ccccc2)cc1` [Triphenyltin hydroxide], the LEL [9, 31] was 0.85 mg/kg/day, the NEL [9, 31] was less than 0.85 mg/kg/day and the NOAEL ([9]; systemic / clinical chemistry / immunoglobulins / immunoglobulins + systemic / pathology microscopic / thymus / cyst + systemic / in life …) was 3.5 mg/kg/day. It also gave an LOAEL ([9]; systemic / in life observation / body weight / body weight gain + systemic / organ weight / liver / absolute + systemic / organ weight / …) of 15.2 mg/kg/day, an LEL ([10]; systemic / clinical chemistry / aspartate aminotransferase (ast/sgot) / aspartate aminotransferase (ast/sgot) + systemic / clinical …) of 1.56 mg/kg/day and an LOAEL [10, 32] of 7.41 mg/kg/day. For the same compound, the NEL [10, 32] was 0.3 mg/kg/day, the NOAEL [10, 32] was 1.56 mg/kg/day and the LEL [11, 33] was 8 mg/kg/day. The LOAEL [11, 33] was 8 mg/kg/day, the NEL [11, 33] was 2.8 mg/kg/day and the NOAEL [11, 33] was 2.8 mg/kg/day. It also gave an LEL [11, 34] of 2.8 mg/kg/day, an LOAEL [11, 34] of 2.8 mg/kg/day and an NEL [11, 35] of 1 mg/kg/day. For the same compound, the NOAEL [11, 35] was 1 mg/kg/day, the LOAEL [12, 27] was 0.9 mg/kg/day and the LEL [12, 36] was 0.9 mg/kg/day. For the same compound, the NEL [12, 36] was 0.3 mg/kg/day, the NOAEL [12, 36] was 0.3 mg/kg/day and the LOAEL ([12]; group: maternal, systemic / in life observation / body weight / body weight gain) was 0.3 mg/kg/day. For the same compound, the NEL [12, 37] was 0.1 mg/kg/day, the NOAEL [12, 37] was 0.1 mg/kg/day and the LEL ([12]; group: maternal, systemic / in life observation / body weight / body weight gain + systemic / in life observation / body weight / body weight + systemic / in…) was 0.3 mg/kg/day. The LOAEL [13, 38] was 0.85 mg/kg/day, the NOAEL [13, 38] was less than 0.85 mg/kg/day and the LEL [13, 31] was 0.85 mg/kg/day. It also gave an NEL [13, 31] of less than 0.85 mg/kg/day, an LEL [14, 39] of 4.12 mg/kg/day and an LOAEL [14, 39] of 4.12 mg/kg/day. The NEL [14, 40] was 0.88 mg/kg/day and the NOAEL [14, 40] was 0.88 mg/kg/day.
